Data: patent publication US6482411B1, “Methods of reducing bone loss with CD40 ligand” (Board of Regents, The University of Texas System, priority 1999, dated 2002)
Marks after values point to notes of the source that are not given here.

Experiments:
[1] = cited from earlier work
[2] = approximately 2,000 women randomized; cited from earlier work
[3] = tested on: MLO-Y4 cells stably transduced with nuclear GFP; test: GFP nuclear stain apoptosis assay in MLO-Y4 cells; assay type: cell-based, murine; settings: CD40L pretreatment 15 min where given, then dexamethasone, TNFα or etoposide 50 μM for 6 h
Protocol: (§1) The MLO-Y4 cells were pretreated with CD40L (0.5-1.5 μg/ml) for 15 mins. followed by treatment with either dexamethasone at 10^−6 M (10^−7M in earlier studies), TNFα at 1 ng/ml or etoposide at 50 μM for 6 hrs. The cells were cultured in 2.5% FBS/2.5% CS in α-MEM, 5% CO2, 37° C.
GFP Nuclear Stain: Visualization of morphological features of apoptosis in the nucleus of the cells, such as chromatin condensation and nuclear fragmentation, was determined in this assay. During apoptosis the nucleus becomes shrunken and pyknotic as a result of DNA degradation. MLO-Y4 cells were stably transduced with a retroviral vector carrying the green fluorescent protein (GFP) CDNA with a nuclear localization sequence designed to target the GFP to the nucleus (Plotkin et al., 1998). […] At least 500 cells from fields selected by systematic random ampling were examined for each condition (Plotkinn et al., 1999; Jilka et al., 1999).

[4] = tested on: MLO-Y4 osteocytic cell line; test: Trypan blue exclusion (cell death) in MLO-Y4 cells; assay type: cell-based, murine; settings: CD40L pretreatment 15 min where given, then dexamethasone 10^-6 M (10^-7 M earlier), TNFα or etoposide 50 μM for 6 h
Protocol: The MLO-[…][…] (0.5-1.5 μg/ml) for 15 mins. followed by treatment with either dexamethasone at 10^-6 M (10^-7M in earlier studies), TNFα at 1 ng/ml or etoposide at 50 μM for 6 hrs. […] Trypan Blue Exclusion: Staining of cultured cells with vital dyes such as trypan blue is commonly used approach to quantify cell death. This is based on the premise that viable cells with intact membranes will exclude specific dyes such as trypan blue, which can easily be quantified under light microscopy ([…], 1998). The percentage of trypan blue positive cells in each culture condition was used to calculate cell survival. This method is […] for screening multiple samples or treatment conditions, but can underestimate cell death since membrane integrity can be intact until late in apoptosis. Trypan vital dye staining is not specific for apoptosis and will also stain necrotic cells. This was confirmed by additional analysis discussed below. Apoptosis of MLO-Y4 or calvaria cells was quantified by trypan blue staining (Jilka et al., 1998). Nonadherent cells were combined with adherent cells released from the culture dish using trypsin-EDTA, resuspended in medium containing serum, and collected by centrifugation. […] At least 100 cells per condition were counted. Trypan vital dye staining is not specific for apoptosis and will also stain necrotic cells. […]

[5] = tested on: MLO-Y4 cells; test: FACS staining for Annexin V/propidium iodide in MLO-Y4 cells; assay type: cell-based, murine; settings: CD40L pretreatment 15 min where given, then dexamethasone or TNFα for 6 h
Protocol: as §1
FACS Staining for Annexin V/Propidium Iodide: In early stages of apoptosis the cells lose membrane asymmetry and translocate the membrane phospholipid phosphatidylserine to the outer leaflet of the plasma membrane, where it can be detected by its high affinity binding to annexin V (Rillema, 1998). Annexin V is a calcium-dependent phospholipid-binding protein that has a high affinity for phosphatidylserine. Prolonged apoptosis can cause cell death and these non-viable cells stain positive for vital dye Propidium Iodide (PI) as well as Annexin V. Apoptotic cells stain Annexin V positive and Propidium iodide negative.
The staining protocol includes washing single cell suspension twice with PBS and resuspending in 1×binding buffer (0.1 M HEPES/NaOH, pH 7.4; […]; 25 mM CaCl2) at a concentration of one million cells/ml. The cells are aliquoted (100 μl) in polypropylene tubes, incubated with annexin V FITC (5 μl) and propidium iodide (10 μl) for 15 minutes at 4° C. in the dark, and analyzed by flow cytometry within 1 hour. […]

SMILES	GFP, percent positive cells (apoptotic) [3]	Trypan Blue, percent positive cells (dead) [4]	also measured
O=C(c1ccc(OCCN2CCCCC2)cc1)c1c(-c2ccc(O)cc2)sc2cc(O)ccc12 [raloxifene]			proportion of women reporting hot flashes ([1]; 60 mg raloxifene daily, placebo 22.7%, no significant difference): 26.3%; endometrial proliferation ([1]; over 600 menopausal women): without inducing endometrial proliferation
NCCCC(O)(P(=O)(O)O)P(=O)(O)O [alendronate]			women with vertebra fractures versus placebo [2]: significantly fewer
COc1cc([C@@H]2c3cc4c(cc3[C@@H](O[C@@H]3O[C@@H]5CO[C@@H](C)O[C@H]5[C@H](O)[C@H]3O)[C@H]3COC(=O)[C@H]23)OCO4)cc(OC)c1O [Etoposide, etoposide]	15.9* percent	15.8 ± 2.0%	
C[C@@H]1C[C@H]2[C@@H]3CCC4=CC(=O)C=C[C@]4(C)[C@@]3(F)[C@@H](O)C[C@]2(C)[C@@]1(O)C(=O)CO [Dex, dexamethasone]	24.0* percent	13.7 ± 1.4%	Annexin V, percent positive cells (apoptotic) [5]: 23.7 ± 1.6%
